± gives the uncertainty stated by the source.
Experiment: xn = mol fraction of the nth substance listed
Conditions: 100 kPa

O=C(O)c1cccnc1 + CCCC[n+]1ccn(C)c1.[Br-] + O
viscosity [mPa·s]
Conditions	293.15 K	298.15 K	303.15 K
x1 = 0.0002684, x2 = 0	1.015 ± 0.031	0.903 ± 0.031	0.807 ± 0.031
x1 = 0.0002711, x2 = 0.0008999	1.035 ± 0.032	0.92 ± 0.031	0.824 ± 0.031
x1 = 0.0002757, x2 = 0.001798	1.06 ± 0.032	0.94 ± 0.031	0.842 ± 0.031
x1 = 0.0002802, x2 = 0.002695	1.071 ± 0.032	1.002 ± 0.031	0.906 ± 0.031
x1 = 0.0005421, x2 = 0	1.018 ± 0.031	0.905 ± 0.031	0.809 ± 0.031
x1 = 0.0005475, x2 = 0.0008997	1.039 ± 0.032	0.923 ± 0.031	0.827 ± 0.031
x1 = 0.0005493, x2 = 0.001798	1.063 ± 0.032	0.942 ± 0.031	0.843 ± 0.031
x1 = 0.0005547, x2 = 0.002694	1.074 ± 0.032	1.004 ± 0.031	0.908 ± 0.031
x1 = 0.0008084, x2 = 0	1.021 ± 0.031	0.908 ± 0.031	0.812 ± 0.031
x1 = 0.0008166, x2 = 0.0008994	1.042 ± 0.032	0.925 ± 0.031	0.829 ± 0.031
x1 = 0.0008283, x2 = 0.001797	1.066 ± 0.032	0.945 ± 0.031	0.845 ± 0.031
x1 = 0.0008364, x2 = 0.002693	1.077 ± 0.032	1.007 ± 0.031	0.91 ± 0.031
x1 = 0.001084, x2 = 0	1.024 ± 0.031	0.911 ± 0.031	0.814 ± 0.031
x1 = 0.001093, x2 = 0.0008992	1.044 ± 0.032	0.927 ± 0.031	0.83 ± 0.031
x1 = 0.001104, x2 = 0.001797	1.069 ± 0.032	0.947 ± 0.031	0.848 ± 0.031
x1 = 0.001114, x2 = 0.002693	1.08 ± 0.032	1.009 ± 0.031	0.912 ± 0.031
x1 = 0.001351, x2 = 0	1.027 ± 0.032	0.913 ± 0.031	0.816 ± 0.031
x1 = 0.001363, x2 = 0.000899	1.047 ± 0.032	0.93 ± 0.031	0.833 ± 0.031
x1 = 0.001377, x2 = 0.001796	1.071 ± 0.032	0.95 ± 0.031	0.85 ± 0.031
x1 = 0.00139, x2 = 0.002692	1.083 ± 0.032	1.012 ± 0.031	0.915 ± 0.031
x1 = 0.001619, x2 = 0	1.03 ± 0.032	0.916 ± 0.031	0.819 ± 0.031
x1 = 0.001635, x2 = 0.0008987	1.05 ± 0.032	0.932 ± 0.031	0.835 ± 0.031
x1 = 0.001652, x2 = 0.001796	1.074 ± 0.032	0.952 ± 0.031	0.852 ± 0.031
x1 = 0.001666, x2 = 0.002691	1.086 ± 0.032	1.014 ± 0.031	0.917 ± 0.031

— the CheMixHub ionic liquid set
